Measured values from PubChem BioAssay AID2060623 (Molecular Pharmacology Branch, DTP, NCI, 2025).

System: 227483-062-R1-J1-PDC complex spheroids with HUVEC/MSC, viability
Assay: Anticancer human tumor 227483-062-R1-J1-PDC patient-derived pancreatic carcinoma cell line growth inhibition [CLK]
Conditions: for IC50: curve of first compound; for viability, T/C: stronger effect = lower value
Source text: A high-throughput screen of multi-cell type tumor spheroids was designed to identify active combinations of […] and targeted small molecules. Complex spheroids include a stromal component modeled by human endothelial cells (HUVEC) and fibroblasts modeled by human mesenchymal stem cells (MSCs). The concentration ranges selected for each drug and investigational agent were based upon clinically achievable concentrations if the clinical Cmax of the agent was known.
Compounds. The drugs and investigational agents: cirtuvivint (SM08502; NSC835563), CC-671 (NSC850746), vemurafenib (NSC761431), tapotoclax (NSC804041), sotorasib (NSC818433), adagrasib (NSC831453), MRTX-1133 (NSC836407), BAY2416964 (NSC825713), copanlisib (NSC816437), inavolisib (NSC800729), abemaciclib (NSC768073), osimertinib (NSC779217), entinostat (NSC756642), eltanexor (KPT-8602, NSC794443), venetoclax (NSC766270), ceralasertib (NSC777638), bortezomib (NSC756655), olaparib (NSC753686), talazoparib (NSC767125), alisertib (NSC759677), peposertib (NSC802822), gemcitabine (NSC613327), 5-fluorouracil (NSC19893), SN-38 (NSC673596), oxaliplatin (NSC266046), paclitaxel (NSC125973), and doxorubicin (NSC123127), were obtained from the National Cancer Institute (NCI) Developmental Therapeutics Program Chemical Repository. The FDA-approved anticancer drug set is available from the Developmental Therapeutics Program at https://dtp.cancer.gov/organization/dscb/obtaining/available plates.htm. […] The stock solutions were prepared in dimethyl sulfoxide (DMSO, Sigma-Aldrich, St. Louis, MO, cat. D2650), except for the platinum complexes which were prepared in saline (Quality Biological, Gaithersburg, MD, cat. 114-055-101), at 800-fold the tested concentration and stored at -70 degrees C prior to their use. All drugs and investigational agents were tested over a range starting from a high concentration at or near the clinical Cmax and decreasing in half-log increments. If the clinical Cmax for an agent had not been determined, the highest concentration tested was 10 microM.
Cell Culture. All cells were maintained in an incubator at 37 degrees C and 5% CO2 with 95% humidity. The PDC lines were cultured according to standard operating procedures established by the NCI PDMR. Briefly, all PDCs were thawed and cultured in Matrigel-coated flasks prepared with a working solution of 1X Ham's F-12 nutrient mix, without supplementation (Invitrogen, Waltham, MA, cat. 11765054), 100 U/mL penicillin-streptomycin (Invitrogen, cat. 15140122), and 2.5% Matrigel (Corning Inc., Corning, NY, cat. 354248) for the first three passages. The 947758-054-R-J2-PDC line was cultured in 6B/Colon 1A media, which includes advanced DMEM/F-12 (Thermo Fisher Scientific, cat. 12634028), 10 mM HEPES (Thermo Fisher Scientific, cat. 15630080), 1X GlutaMAX supplement (Thermo Fisher Scientific, cat. 35050061), 0.1 mg/mL primocin (InvivoGen, cat. ant-pm-2), 10% defined fetal bovine serum, heat inactivated (HyClone Laboratories Inc., cat. SH30070.03HI), 1.25 mM N-Acetyl-L-cysteine (Sigma-Aldrich, cat. A9165), 10 mM nicotinamide (Sigma-Aldrich, cat. N0636), 1X B-27 supplement (Thermo Fisher Scientific, cat. 17504044), 1X N-2 supplement (Thermo Fisher Scientific, cat. 17502048), and 10 microM Y-27632 dihydrochloride (Tocris Bioscience, cat. 1254). The 876862-298-R-J1-PDC was cultured in 6E media, which includes all 6B/Colon 1A media components plus 50% L-WRN conditioned media (ATCC, cat. CRL-3276), 50 ng/mL recombinant human EGF recombinant protein (hEGF; Thermo Fisher Scientific, cat. PHG0311), 10 ng/mL recombinant human fibroblast growth factor 10 (hGFG-10; PeproTech, cat. 100-26), 1 ng/mL recombinant human fibroblast growth factor 2 (hFGF-2; PeproTech, cat. 100-18B), and 1 µM prostaglandin E2 (PGE2; Tocris, cat. 2296). The 227483-062-R1-J1-PDC line was cultured in Panc media, containing all 6E components except hFGF-2, with the addition of 500 nM SB-431542 (Selleckchem, cat. S1067) and 10 nM gastrin (Tocris, cat. 3006). […]

[1] = second compound 0.0316 µM, first compound 0.0316 µM
[2] = second compound 0.0316 µM, first compound 0.1 µM
[3] = second compound 0.0316 µM, first compound 0.316 µM
[4] = second compound 0.0316 µM, first compound 1 µM
[5] = second compound 0.0316 µM, first compound 3.16 µM
[6] = second compound 0.0316 µM, first compound 10 µM
[7] = second compound 0.1 µM, first compound 0.0316 µM
[8] = second compound 0.1 µM, first compound 0.1 µM
[9] = second compound 0.1 µM, first compound 0.316 µM
[10] = second compound 0.1 µM, first compound 1 µM
[11] = second compound 0.1 µM, first compound 3.16 µM
[12] = second compound 0.1 µM, first compound 10 µM
[13] = second compound 0.316 µM, first compound 0.0316 µM
[14] = second compound 0.316 µM, first compound 0.1 µM
[15] = second compound 0.316 µM, first compound 0.316 µM
[16] = second compound 0.316 µM, first compound 1 µM
[17] = second compound 0.316 µM, first compound 3.16 µM
[18] = second compound 0.316 µM, first compound 10 µM
[19] = second compound 1 µM, first compound 0.0316 µM
[20] = second compound 1 µM, first compound 0.1 µM
[21] = second compound 1 µM, first compound 0.316 µM
[22] = second compound 1 µM, first compound 1 µM
[23] = second compound 1 µM, first compound 3.16 µM
[24] = second compound 1 µM, first compound 10 µM
[25] = second compound 3.16 µM, first compound 0.0316 µM
[26] = second compound 3.16 µM, first compound 0.1 µM
[27] = second compound 3.16 µM, first compound 0.316 µM
[28] = second compound 3.16 µM, first compound 1 µM
[29] = second compound 3.16 µM, first compound 3.16 µM
[30] = second compound 3.16 µM, first compound 10 µM
[31] = second compound 10 µM, first compound 0.0316 µM
[32] = second compound 10 µM, first compound 0.1 µM
[33] = second compound 10 µM, first compound 0.316 µM
[34] = second compound 10 µM, first compound 1 µM
[35] = second compound 10 µM, first compound 3.16 µM
[36] = second compound 10 µM, first compound 10 µM
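Note: spheroids exposed to compounds for seven days before readout.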
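Throughout, for viability, T/C: percent of DMSO vehicle control luminescence as 100% viability.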

C#Cc1c(F)ccc2cc(O)cc(-c3ncc4c(N5CC6CCC(C5)N6)nc(OCC56CCCN5CC(F)C6)nc4c3F)c12 (stereo unspecified) + CN1CCN(c2cc(C(=O)Nc3cc4cc(-c5cnn(C)c5)ccc4cn3)ccn2)CC1
IC50 (second compound 0.0316 µM): > 10000 nM | IC50 (second compound 0.1 µM): > 10000 nM | IC50 (second compound 0.316 µM): < 31.6 nM | IC50 (second compound 1 µM): < 31.6 nM | IC50 (second compound 3.16 µM): < 31.6 nM | IC50 (second compound 10 µM): < 31.6 nM | viability, T/C [1]: 95.4% | viability, T/C [2]: 97% | viability, T/C [3]: 128% | viability, T/C [4]: 114% | viability, T/C [5]: 108% | viability, T/C [6]: 69.7% | viability, T/C [7]: 66.1% | viability, T/C [8]: 70.6% | viability, T/C [9]: 67.7% | viability, T/C [10]: 81.6% | viability, T/C [11]: 68.8% | viability, T/C [12]: 52.3% | viability, T/C [13]: 5.84% | viability, T/C [14]: 7.37% | viability, T/C [15]: 7.6% | viability, T/C [16]: 7.53% | viability, T/C [17]: 10% | viability, T/C [18]: 6.58% | viability, T/C [19]: 3.51% | viability, T/C [20]: 2.53% | viability, T/C [21]: 1.89% | viability, T/C [22]: 3.48% | viability, T/C [23]: 1.46% | viability, T/C [24]: 1.87% | viability, T/C [25]: 4.16% | viability, T/C [26]: 4.44% | viability, T/C [27]: 3.89% | viability, T/C [28]: 3.43% | viability, T/C [29]: 3.41% | viability, T/C [30]: 2.74% | viability, T/C [31]: 4.25% | viability, T/C [32]: 2.63% | viability, T/C [33]: 2.09% | viability, T/C [34]: 4% | viability, T/C [35]: 1.52% | viability, T/C [36]: 1.15%

C=C(F)C(=O)N1CCN(c2nc(OCC3CCCN3C)nc3c2CCN(c2cccc4cccc(Cl)c24)C3)CC1CC#N (stereo unspecified) + CN1CCN(c2cc(C(=O)Nc3cc4cc(-c5cnn(C)c5)ccc4cn3)ccn2)CC1
IC50 (second compound 0.0316 µM): 6190 nM | IC50 (second compound 0.1 µM): 4890 nM | IC50 (second compound 0.316 µM): < 31.6 nM | IC50 (second compound 1 µM): < 31.6 nM | IC50 (second compound 3.16 µM): < 31.6 nM | IC50 (second compound 10 µM): < 31.6 nM | viability, T/C [1]: 87.7% | viability, T/C [2]: 104% | viability, T/C [3]: 102% | viability, T/C [4]: 86.8% | viability, T/C [5]: 89.8% | viability, T/C [6]: 21.3% | viability, T/C [7]: 67.6% | viability, T/C [8]: 73.8% | viability, T/C [9]: 68% | viability, T/C [10]: 78.8% | viability, T/C [11]: 78.2% | viability, T/C [12]: 11.8% | viability, T/C [13]: 5.59% | viability, T/C [14]: 5.63% | viability, T/C [15]: 5.48% | viability, T/C [16]: 4.47% | viability, T/C [17]: 5.37% | viability, T/C [18]: 0.42% | viability, T/C [19]: 3.8% | viability, T/C [20]: 3.22% | viability, T/C [21]: 2.15% | viability, T/C [22]: 3.98% | viability, T/C [23]: 0.88% | viability, T/C [24]: 0.97% | viability, T/C [25]: 5.83% | viability, T/C [26]: 2.98% | viability, T/C [27]: 3.49% | viability, T/C [28]: 4.77% | viability, T/C [29]: 1.3% | viability, T/C [30]: 1.8% | viability, T/C [31]: 3.7% | viability, T/C [32]: 1.84% | viability, T/C [33]: 3.88% | viability, T/C [34]: 2.09% | viability, T/C [35]: 1.69% | viability, T/C [36]: 0.39%

CC(CO)NC(=O)c1cc(-c2ccc(Cl)cc2)nn(-c2cnn(C)c2)c1=O (stereo unspecified) + CN1CCN(c2cc(C(=O)Nc3cc4cc(-c5cnn(C)c5)ccc4cn3)ccn2)CC1
IC50 (second compound 0.0316 µM): > 10000 nM | IC50 (second compound 0.1 µM): > 10000 nM | IC50 (second compound 0.316 µM): < 31.6 nM | IC50 (second compound 1 µM): < 31.6 nM | IC50 (second compound 3.16 µM): < 31.6 nM | IC50 (second compound 10 µM): < 31.6 nM | viability, T/C [1]: 88.9% | viability, T/C [2]: 89.1% | viability, T/C [3]: 98.5% | viability, T/C [4]: 94% | viability, T/C [5]: 94.7% | viability, T/C [6]: 82.4% | viability, T/C [7]: 65.2% | viability, T/C [8]: 61.3% | viability, T/C [9]: 66.4% | viability, T/C [10]: 69% | viability, T/C [11]: 63.2% | viability, T/C [12]: 65.4% | viability, T/C [13]: 6.17% | viability, T/C [14]: 7.14% | viability, T/C [15]: 9.66% | viability, T/C [16]: 6.91% | viability, T/C [17]: 8.13% | viability, T/C [18]: 5.79% | viability, T/C [19]: 2.97% | viability, T/C [20]: 2.61% | viability, T/C [21]: 3.05% | viability, T/C [22]: 3.03% | viability, T/C [23]: 1.78% | viability, T/C [24]: 1.92% | viability, T/C [25]: 4.36% | viability, T/C [26]: 4.28% | viability, T/C [27]: 3.59% | viability, T/C [28]: 2.83% | viability, T/C [29]: 3.7% | viability, T/C [30]: 3.41% | viability, T/C [31]: 4.97% | viability, T/C [32]: 2.72% | viability, T/C [33]: 2.16% | viability, T/C [34]: 2.15% | viability, T/C [35]: 2.52% | viability, T/C [36]: 3%
